Source: PubChem BioAssay (NCI)
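96-well plates; 48 h exposure; 5 concentrations. Endpoints by linear interpolation between flanking doses. Not reached: highest tested concentration assigned. TGI marks complete inhibition of growth.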

Tests used:
Assay in all cases: inhibition of tumour cell growth, NCI panel, 48 h
ACHN renal = system: ACHN renal
SNB-19 CNS = system: SNB-19 CNS
NCI-H23 lung = system: NCI-H23 lung
COLO 205 colon = system: COLO 205 colon
A549 NSCLC = system: A549 NSCLC
UACC-62 melanoma = system: UACC-62 melanoma
SW-620 colon = system: SW-620 colon
SF-268 CNS = system: SF-268 CNS
NCI-H460 lung = system: NCI-H460 lung
OVCAR-3 ovarian = system: OVCAR-3 ovarian
SK-MEL-28 melanoma = system: SK-MEL-28 melanoma
DLD-1 colon = system: DLD-1 colon
U251 CNS = system: U251 CNS
OVCAR-8 ovarian = system: OVCAR-8 ovarian
KM12 colon = system: KM12 colon
NCI-H226 lung = system: NCI-H226 lung
SK-MEL-2 melanoma = system: SK-MEL-2 melanoma
A498 renal = system: A498 renal
HOP-92 NSCLC = system: HOP-92 NSCLC
HCT-15 colon = system: HCT-15 colon
OVCAR-5 ovarian = system: OVCAR-5 ovarian
HOP-62 NSCLC = system: HOP-62 NSCLC
CAKI-1 renal = system: CAKI-1 renal
SNB-78 CNS = system: SNB-78 CNS
SF-295 CNS = system: SF-295 CNS
EKVX NSCLC = system: EKVX NSCLC
SK-MEL-5 melanoma = system: SK-MEL-5 melanoma
HOP-18 NSCLC = system: HOP-18 NSCLC
HCT-116 colon = system: HCT-116 colon
IGROV1 ovarian = system: IGROV1 ovarian
786-0 renal = system: 786-0 renal
MALME-3M melanoma = system: MALME-3M melanoma
SF-539 CNS = system: SF-539 CNS
XF 498 CNS = system: XF 498 CNS
KM20L2 colon = system: KM20L2 colon
TK-10 renal = system: TK-10 renal
SN12C renal = system: SN12C renal
RXF 393 renal = system: RXF 393 renal
DMS 114 small cell lung = system: DMS 114 small cell lung
LOX IMVI melanoma = system: LOX IMVI melanoma
UACC-257 melanoma = system: UACC-257 melanoma
OVCAR-4 ovarian = system: OVCAR-4 ovarian
DMS 273 small cell lung = system: DMS 273 small cell lung
HCC-2998 colon = system: HCC-2998 colon
RPMI-8226 leukemia = system: RPMI-8226 leukemia
HL-60(TB) leukemia = system: HL-60(TB) leukemia
M14 melanoma = system: M14 melanoma
MOLT-4 leukemia = system: MOLT-4 leukemia
NCI-H522 lung = system: NCI-H522 lung
LXFL 529 NSCLC = system: LXFL 529 NSCLC
HT29 colon = system: HT29 colon
CCRF-CEM leukemia = system: CCRF-CEM leukemia
SNB-75 CNS = system: SNB-75 CNS
SR leukemia = system: SR leukemia
UO-31 renal = system: UO-31 renal
SK-OV-3 ovarian = system: SK-OV-3 ovarian
K-562 leukemia = system: K-562 leukemia
M19-MEL melanoma = system: M19-MEL melanoma

CCCCCC(=O)OCCOCCOCCOCCOCCOCc1ccccc1
TGI (ACHN renal): > 100 µM | TGI (SNB-19 CNS): > 100 µM | TGI (NCI-H23 lung): > 100 µM | TGI (COLO 205 colon): > 100 µM | TGI (A549 NSCLC): > 100 µM | TGI (UACC-62 melanoma): > 100 µM | TGI (SW-620 colon): > 100 µM | TGI (SF-268 CNS): > 100 µM | TGI (NCI-H460 lung): > 100 µM | TGI (OVCAR-3 ovarian): > 100 µM | TGI (SK-MEL-28 melanoma): > 100 µM | TGI (DLD-1 colon): > 100 µM | TGI (U251 CNS): > 100 µM | TGI (OVCAR-8 ovarian): > 100 µM | TGI (KM12 colon): > 100 µM | TGI (NCI-H226 lung): > 100 µM | TGI (SK-MEL-2 melanoma): > 100 µM | TGI (A498 renal): > 100 µM | TGI (HOP-92 NSCLC): > 100 µM | TGI (HCT-15 colon): > 100 µM | TGI (OVCAR-5 ovarian): > 100 µM | TGI (HOP-62 NSCLC): > 100 µM | TGI (CAKI-1 renal): > 100 µM | TGI (SNB-78 CNS): > 100 µM | TGI (SF-295 CNS): > 100 µM | TGI (EKVX NSCLC): > 100 µM | TGI (SK-MEL-5 melanoma): > 100 µM | TGI (HOP-18 NSCLC): > 100 µM | TGI (HCT-116 colon): > 100 µM | TGI (IGROV1 ovarian): > 100 µM | TGI (786-0 renal): > 100 µM | TGI (MALME-3M melanoma): > 100 µM | TGI (SF-539 CNS): > 100 µM | TGI (XF 498 CNS): > 100 µM | TGI (KM20L2 colon): > 100 µM | TGI (TK-10 renal): > 100 µM | TGI (SN12C renal): > 100 µM | TGI (RXF 393 renal): > 100 µM | TGI (DMS 114 small cell lung): > 100 µM | TGI (LOX IMVI melanoma): > 100 µM | TGI (UACC-257 melanoma): > 100 µM | TGI (OVCAR-4 ovarian): > 100 µM | TGI (DMS 273 small cell lung): > 100 µM

COc1ccc2c3c([nH]c2c1CC=C(C)C)C(=O)C=C(C)C3=O
TGI (ACHN renal): > 25 µM | TGI (SNB-19 CNS): > 25 µM | TGI (NCI-H23 lung): > 25 µM | TGI (COLO 205 colon): > 25 µM | TGI (A549 NSCLC): > 25 µM | TGI (UACC-62 melanoma): > 25 µM | TGI (HCC-2998 colon): > 25 µM | TGI (RPMI-8226 leukemia): > 25 µM | TGI (SW-620 colon): > 25 µM | TGI (SF-268 CNS): > 25 µM | TGI (NCI-H460 lung): > 25 µM | TGI (HL-60(TB) leukemia): > 25 µM | TGI (OVCAR-3 ovarian): > 25 µM | TGI (SK-MEL-28 melanoma): > 25 µM | TGI (DLD-1 colon): > 25 µM | TGI (U251 CNS): > 25 µM | TGI (M14 melanoma): > 25 µM | TGI (MOLT-4 leukemia): > 25 µM | TGI (NCI-H522 lung): > 25 µM | TGI (OVCAR-8 ovarian): > 25 µM | TGI (KM12 colon): > 25 µM | TGI (LXFL 529 NSCLC): > 25 µM | TGI (NCI-H226 lung): > 25 µM | TGI (SK-MEL-2 melanoma): > 25 µM | TGI (HOP-92 NSCLC): > 25 µM | TGI (HCT-15 colon): > 25 µM | TGI (HT29 colon): > 25 µM | TGI (OVCAR-5 ovarian): > 25 µM | TGI (HOP-62 NSCLC): > 25 µM | TGI (CAKI-1 renal): > 25 µM | TGI (SF-295 CNS): > 25 µM | TGI (EKVX NSCLC): > 25 µM | TGI (SK-MEL-5 melanoma): > 25 µM | TGI (CCRF-CEM leukemia): > 25 µM | TGI (HOP-18 NSCLC): > 25 µM | TGI (SNB-75 CNS): > 25 µM | TGI (SR leukemia): > 25 µM | TGI (HCT-116 colon): > 25 µM | TGI (IGROV1 ovarian): > 25 µM | TGI (786-0 renal): > 25 µM | TGI (MALME-3M melanoma): > 25 µM | TGI (SF-539 CNS): > 25 µM | TGI (XF 498 CNS): > 25 µM | TGI (UO-31 renal): > 25 µM | TGI (KM20L2 colon): > 25 µM | TGI (SK-OV-3 ovarian): > 25 µM | TGI (K-562 leukemia): > 25 µM | TGI (TK-10 renal): > 25 µM | TGI (SN12C renal): > 25 µM | TGI (M19-MEL melanoma): > 25 µM | TGI (RXF 393 renal): > 25 µM | TGI (DMS 114 small cell lung): > 25 µM | TGI (UACC-257 melanoma): > 25 µM | TGI (OVCAR-4 ovarian): > 25 µM | TGI (DMS 273 small cell lung): > 25 µM

CN(C)c1nc(N(C)C)sc(=O)n1
TGI (ACHN renal): > 100 µM | TGI (SNB-19 CNS): > 100 µM | TGI (NCI-H23 lung): > 100 µM | TGI (A549 NSCLC): > 100 µM | TGI (UACC-62 melanoma): > 100 µM | TGI (HCC-2998 colon): > 100 µM | TGI (RPMI-8226 leukemia): > 100 µM | TGI (SW-620 colon): > 100 µM | TGI (SF-268 CNS): > 100 µM | TGI (NCI-H460 lung): > 100 µM | TGI (HL-60(TB) leukemia): > 100 µM | TGI (SK-MEL-28 melanoma): > 100 µM | TGI (DLD-1 colon): > 100 µM | TGI (U251 CNS): > 100 µM | TGI (M14 melanoma): > 100 µM | TGI (MOLT-4 leukemia): > 100 µM | TGI (NCI-H522 lung): > 100 µM | TGI (OVCAR-8 ovarian): > 100 µM | TGI (KM12 colon): > 100 µM | TGI (LXFL 529 NSCLC): > 100 µM | TGI (NCI-H226 lung): > 100 µM | TGI (SK-MEL-2 melanoma): > 100 µM | TGI (A498 renal): > 100 µM | TGI (HOP-92 NSCLC): > 100 µM | TGI (HCT-15 colon): > 100 µM | TGI (HT29 colon): > 100 µM | TGI (OVCAR-5 ovarian): > 100 µM | TGI (HOP-62 NSCLC): > 100 µM | TGI (CAKI-1 renal): > 100 µM | TGI (SF-295 CNS): > 100 µM | TGI (EKVX NSCLC): > 100 µM | TGI (SK-MEL-5 melanoma): > 100 µM | TGI (CCRF-CEM leukemia): > 100 µM | TGI (HOP-18 NSCLC): > 100 µM | TGI (SNB-75 CNS): > 100 µM | TGI (SR leukemia): > 100 µM | TGI (IGROV1 ovarian): > 100 µM | TGI (786-0 renal): > 100 µM | TGI (SF-539 CNS): > 100 µM | TGI (XF 498 CNS): > 100 µM | TGI (UO-31 renal): > 100 µM | TGI (KM20L2 colon): > 100 µM | TGI (SK-OV-3 ovarian): > 100 µM | TGI (K-562 leukemia): > 100 µM | TGI (TK-10 renal): > 100 µM | TGI (SN12C renal): > 100 µM | TGI (M19-MEL melanoma): > 100 µM | TGI (RXF 393 renal): > 100 µM | TGI (DMS 114 small cell lung): > 100 µM | TGI (UACC-257 melanoma): > 100 µM | TGI (OVCAR-4 ovarian): > 100 µM | TGI (DMS 273 small cell lung): > 100 µM
